# Source: patent US20200017495A1, “NOVEL HETEROCYCLIC COMPOUNDS AND THEIR USE IN PREVENTING OR TREATING BACTERIAL INFECTIONS” (priority 2017, published 2020)
# Key:
# Assay in all cases: MIC of compounds alone and combined with antibacterials, broth microdilution (CLSI)
# Assay type in all cases: cell-based
# [1] = test system: Citrobacter koseri (CKR) isolates
# Procedure: (§1) Method 2: MIC of Compounds Alone and Combined with Antibacterials Against Bacterial Isolates
# (§2) Compounds of the present invention were assessed against genotyped bacterial strains (Table 3, 4) alone or in combination with an antibacterial (Table 2). […] Log phase bacterial suspensions were adjusted to a final density of 5.10^5 CFU/mL in cation-adjusted Mueller-Hinton broth (ca-MHB; Becton-Dickinson and Company) and added to each well (98 μL). Microplates were incubated for 16-20 h at 35° C. in ambient air. The MIC of the compounds was defined as the lowest concentration of said compounds that prevented bacterial growth as read by visual inspection. The MIC of ATB at each compound concentration was defined as the lowest concentration of ATB that prevented bacterial growth as read by visual inspection.
# [2] = test system: Morganella morganii (MMO) isolates
# Procedure: as §1, §2
# [3] = test system: Serratia marcescens (SMA) isolates
# Procedure: as §1, §2
compound,measurement,setting,value
"CC(C)(O/N=C(\C(=O)N[C@@H]1C(=O)N2C(C(=O)[O-])=C(C[n+]3ccccc3)CS[C@H]12)c1csc(N)n1)C(=O)O [CAZ, Ceftazidime]",MIC ATB in combination,"[1]; CKO ROU, AF2 @ 8 μg/mL",1 µg/mL
same,MIC ATB in combination,"[1]; CKO ROU, AF3 @ 8 μg/mL",1 µg/mL
same,MIC ATB in combination,"[1]; CKO UFR149, AF2 @ 8 μg/mL",<0.25 µg/mL
same,MIC ATB in combination,"[1]; CKO UFR149, AF3 @ 8 μg/mL",<0.25 µg/mL
same,MIC ATB in combination,"[1]; CKO UFR150, AF2 @ 8 μg/mL",4 µg/mL
same,MIC ATB in combination,"[1]; CKO UFR150, AF3 @ 8 μg/mL",4 µg/mL
same,MIC,"[1]; strain CKO ROU, genotype TEM-1, SHV-12, CTX-M-15, OXA-1, OXA-48",1 µg/mL
same,MIC,"[1]; strain CKO UFR149, genotype OXA-48",>128 µg/mL
same,MIC,"[1]; strain CKO UFR150, genotype TEM-1, OXA-48",4 µg/mL
same,MIC ATB in combination,"[2]; MMO 200321, AF2 @ 8 μg/mL",<=0.25 μg/mL
same,MIC ATB in combination,"[2]; MMO 200321, AF3 @ 8 μg/mL",<=0.25 μg/mL
same,MIC ATB in combination,"[2]; MMO UFR144, AF2 @ 8 μg/mL",<=0.25 μg/mL
same,MIC ATB in combination,"[2]; MMO UFR144, AF3 @ 8 μg/mL",<=0.25 μg/mL
same,MIC ATB in combination,"[2]; MMO UFR240, AF2 @ 8 μg/mL",<=0.25 μg/mL
same,MIC ATB in combination,"[2]; MMO UFR240, AF3 @ 8 μg/mL",<=0.25 μg/mL
same,MIC ATB in combination,"[2]; MMO UFR241, AF2 @ 8 μg/mL",<=0.25 μg/mL
same,MIC ATB in combination,"[2]; MMO UFR241, AF3 @ 8 μg/mL",<=0.25 μg/mL
same,MIC ATB in combination,"[2]; MMO UFR242, AF2 @ 8 μg/mL",<=0.25 μg/mL
same,MIC ATB in combination,"[2]; MMO UFR242, AF3 @ 8 μg/mL",<=0.25 μg/mL
same,MIC ATB in combination,"[2]; MMO UFR243, AF2 @ 8 μg/mL",<=0.25 μg/mL
same,MIC ATB in combination,"[2]; MMO UFR243, AF3 @ 8 μg/mL",<=0.25 μg/mL
same,MIC ATB in combination,"[2]; MMO UFR244, AF2 @ 8 μg/mL",<=0.25 μg/mL
same,MIC ATB in combination,"[2]; MMO UFR244, AF3 @ 8 μg/mL",<=0.25 μg/mL
same,MIC ATB in combination,"[2]; MMO UFR245, AF2 @ 8 μg/mL",<=0.25 μg/mL
same,MIC ATB in combination,"[2]; MMO UFR245, AF3 @ 8 μg/mL",<=0.25 μg/mL
same,MIC ATB in combination,"[2]; MMO UFR246, AF2 @ 8 μg/mL",<=0.25 μg/mL
same,MIC ATB in combination,"[2]; MMO UFR246, AF3 @ 8 μg/mL",<=0.25 μg/mL
same,MIC ATB in combination,"[2]; MMO UFR247, AF2 @ 8 μg/mL",<=0.25 μg/mL
same,MIC ATB in combination,"[2]; MMO UFR247, AF3 @ 8 μg/mL",<=0.25 μg/mL
same,MIC,"[2]; strain MMO 200321, genotype TEM-1, CTX-M-15, OXA-1",16 µg/mL
same,MIC,"[2]; strain MMO UFR144, genotype TEM-1, CTX-M-15",8 µg/mL
same,MIC ATB in combination,"[2]; strain MMO UFR145, with AF2 @ 8 μg/mL",>128 µg/mL
same,MIC ATB in combination,"[2]; strain MMO UFR145, with AF3 @ 8 μg/mL",>128 µg/mL
same,MIC,"[2]; strain MMO UFR240, genotype CTX-M-9",0.5 µg/mL
same,MIC,"[2]; strain MMO UFR241, genotype TEM-1, CTX-M-15",8 µg/mL
same,MIC,"[2]; strain MMO UFR242, genotype TEM-52",32 µg/mL
same,MIC,"[2]; strain MMO UFR243, genotype DHA-1",1 µg/mL
same,MIC,"[2]; strain MMO UFR244, genotype DHA-1",0.5 µg/mL
same,MIC,"[2]; strain MMO UFR245, genotype DHA-1",8 µg/mL
same,MIC,"[2]; strain MMO UFR246, genotype DHA-1",4 µg/mL
same,MIC,"[2]; strain MMO UFR247, genotype DHA-1",0.5 µg/mL
same,MIC ATB in combination,"[3]; SMA UFR30, AF2 @ 8 μg/mL",0.5 µg/mL
same,MIC ATB in combination,"[3]; SMA UFR30, AF3 @ 8 μg/mL",<=0.25 μg/mL
same,MIC ATB in combination,"[3]; SMA UFR134, AF2 @ 8 μg/mL",<=0.25 μg/mL
same,MIC ATB in combination,"[3]; SMA UFR134, AF3 @ 8 μg/mL",0.5 µg/mL
same,MIC ATB in combination,"[3]; SMA UFR135, AF2 @ 8 μg/mL",2 µg/mL
same,MIC ATB in combination,"[3]; SMA UFR135, AF3 @ 8 μg/mL",4 µg/mL
same,MIC ATB in combination,"[3]; SMA UFR136, AF2 @ 8 μg/mL",2 µg/mL
same,MIC ATB in combination,"[3]; SMA UFR136, AF3 @ 8 μg/mL",1 µg/mL
same,MIC ATB in combination,"[3]; SMA UFR137, AF2 @ 8 μg/mL",<=0.25 μg/mL
same,MIC ATB in combination,"[3]; SMA UFR137, AF3 @ 8 μg/mL",0.5 µg/mL
same,MIC ATB in combination,"[3]; SMA UFR138, AF2 @ 8 μg/mL",0.5 µg/mL
same,MIC ATB in combination,"[3]; SMA UFR138, AF3 @ 8 μg/mL",<=0.25 μg/mL
same,MIC ATB in combination,"[3]; SMA UFR139, AF2 @ 8 μg/mL",1 µg/mL
same,MIC ATB in combination,"[3]; SMA UFR139, AF3 @ 8 μg/mL",<=0.25 μg/mL
same,MIC ATB in combination,"[3]; SMA UFR141, AF2 @ 8 μg/mL",<=0.25 μg/mL
same,MIC ATB in combination,"[3]; SMA UFR141, AF3 @ 8 μg/mL",0.5 µg/mL
same,MIC ATB in combination,"[3]; SMA UFR142, AF2 @ 8 μg/mL",0.5 µg/mL
